What all share (format): cell-based, human
One experiment concerns Hs578T. The experiment in a line: MTT cell viability assay. As for the experimental part: (§1) Human breast cancer cells, MDA-MB-468, MDA-MB-157, MDA-MB-231, MDA-MB-453, and Hs578T, and immortalized mammary epithelial cell lines, 184A1 and MCF-10A, were obtained from American Type Culture Collection (Manassas, Va., USA). MDA-MB-468, MDA-MB-157, MDA-MB-231, and MDA-MB-453 were cultured in DMEM/F12 medium supplemented with 10% FBS, 100 U/ml penicillin, and 100 μg/ml streptomycin. Hs578T was cultured in RPMI 1640 medium containing 10% FBS, 2 mM L-glutamine, 100 U/ml penicillin, and 100 μg/ml streptomycin. 184A1 and MCF-10A were cultured in DMEM/F12 medium supplemented with 5% horse serum, 0.5 μg/ml hydrocortisone, 10 μg/ml insulin, 20 ng/ml epidermal growth factor, 0.1 μg/ml cholera enterotoxin, 2 mM L-glutamine, 100 U/ml penicillin, and 100 μg/ml streptomycin. All cells were maintained in a humidified incubator containing 5% CO2. For hypoxia treatment, cells were incubated in a chamber flushed with 1% 02, 5% CO2, and 94% N2 at 37° C.
(§2) Cell viability was measured by 3-(4,5-Dimethyl-2-thiazolyl)2,5-diphenyl-2H-tetrazolium bromide (MTT) assay.

For the next experiment, the system named is MDA-MB-157. Briefly: MTT cell viability assay. The procedure: as §1, §2
(Tetrazolium assays rely on reduction of a dye to a coloured formazan, in cell work by metabolically active cells.)

In a further experiment the test system is MDA-MB-231. Briefly: MTT cell viability assay. The note with it: triple negative breast cancer cell line MDA-MB-231. The procedure: as §1, §2
In the next experiment the test system is MDA-MB-453. The experiment in a line: MTT cell viability assay. The procedure:
as §1, §2

For the next experiment, the system named is EZH2. Briefly: EZH2 ubiquitination assay. Conditions: 3 μM YC-1. The procedure:
(A) Cells were pretreated with cyclohexamide (30 μM) for 1 h and followed by induction with vehicle (DMSO) or YC-1 (3 μM) for indicated time. Cells were harvested for detection of protein expression. (B)(C) Cells were incubated with 3 μM YC-1 for 6 h in the presence of vehicle, 3 μM MG-132 or 30 μM NH4Cl. Cells were harvested for detection of protein expression (B) or cell viability assay (C). The levels of protein expression were quantitated and shown under blots. (D) After treatment of 3 μM YC-1 for indicated time, cells were harvested and lysed for immunoprecipitation and western blot analysis described in Materials and Methods.
Cells were lysed with MLB buffer (25 mM HEPES, pH 7.5, 150 mM NaCl, 1% Igepal CA-630, 10 mM MgCl2, 1 mM EDTA, 2% glycerol, 1 mM Na3VO4, 1 mM NaF, 1 mM PMSF, 10 μg/ml of leupeptin, aprotinin, and pepstatin A). After sonication, cell lysates were centrifugated at 12,000×g for 10 min at 4° C. Supernatants were incubated with anti-EZH2 antibody (BD Biosciences) and protein A Sepharose beads (GE Health Care) overnight at 4° C. After washing with MLB buffer, precipitated proteins were boiled in 1× Laemmli sample buffer and then separated with SDS-PAGE. The ubiquitination levels of EZH2 were recognized by using anti-Ubiquitn monoclonal antibody.

The next experiment has as its system EGFR. The experiment in a line: Western blot of EGFR phosphorylation and expression. The procedure: Cells were incubated with 3 μM YC-1 for indicated time. Cells were harvested and subjected to western blot analysis for the detection of protein expression. Cells were lysed in PBS containing proteinase inhibitor and phosphatase inhibitors and sonication. Protein concentration was measured using the Bio-Rad protein assay kit (Bio-Rad Laboratories, Hercules, Calif., USA). Lysate protein was separated by electrophoresis of SDS-PAGE and transferred to Immobilon P membrane (EMD Millipore). The membranes were incubated with appropriate primary antibodies and horseradish peroxidase-conjugated secondary antibodies (EMD Millipore). The signaling was visualized using Chemiluminescence substrate kit (EMD Millipore) and collected by the Luminesence image analyzer, LAS4000 (Fuji Photo Film Co., Tokyo, Japan). The band intensities were analyzed and quantified by the Multi Gauge software (Fuji Photo Film).
Background: A western blot detects proteins with antibodies after separation by electrophoresis.

Another experiment relates to EZH2-c-Cbl-ERK. Briefly: Co-immunoprecipitation of c-Cbl and EZH2. The note with it: 3 μM YC-1 with MG-132; after 1 h, maximum at 2 h. As for the experimental part:
(A) c-Cbl knockdown MDA-MB-468 cells were treated with 3 μM YC-1 for 4 h. Cell were harvested for detection of protein expression. (B) Cells were treated with 3 μM YC-1 for indicated time. Cells were collected and c-Cbl phosphorylation was detected. (C) Cells were pretreated with MG-132 (3 μM) or NH4Cl (30 μM) for 1 h followed by 3 μM YC-1 induction for 6 h. (D) Cells were pretreated with MG-132 and followed by 3 μM YC-1 induction for indicated time. Cells were harvested and lysed for immunoprecipitation assay. The association between c-Cbl and EZH2 were determined by western blotting analysis and probed with anti-EZH2 or anti-c-Cbl antibody. Membranes were stripped and reprobed with anti-c-Cbl or anti-EZH2 antibody to check the input. (E) Cells were preincubated with or without PD98059 (10 μM) in the presence of MG-132 for 1 h prior to 2 h-treatment of 3 μM YC-1. Then cells were collected and lysate protein was subjected for the detection of the c-Cbl-EZH2 complexes.
Cells were lysed with RIPA buffer (50 mM Tris-C1, pH 7.5, 1% Igepal CA-630, 150 mM NaCl, 1 mM EDTA, 1 mM Na3VO4, 1 mM NaF, 1 mM PMSF, 10 μg/ml of leupeptin, aprotinin, and pepstatin A) for 30 min at 4° C. One milligram of cell lysate was incubated with anti-EZH2 or anti-c-Cbl antibody and protein A-Sepharose beads, then gently rotated at 4° C. overnight. […]

The results in this text go back to patent US20140357688A1, “METHOD FOR INHIBITING EZH2 EXPRESSION IN BREAST CANCER CELLS” (Yung Shin Pharm. Ind. Co., Ltd., priority 2013, published 2014).

SMILES strings stand for the structures.

Regarding `OCc1ccc(-c2nn(Cc3ccccc3)c3ccccc23)o1` [YC-1, 3-(5′-hydroxymethyl-2′-furyl)-1-benzyl indazole], the “effect on cell viability” value is listed as “no effect” with Hs578T, “no effect” with MDA-MB-157, “slight inhibitory effect” in the experiment with MDA-MB-231 and “no effect” with MDA-MB-453. Further, the “ubiquitination of EZH2” value in the experiment with EZH2 is “time-dependently promoted the ubiquitination of EZH2”. Also, the EGFR phosphorylation entry with EGFR (3 μM YC-1) was “rapidly induced EGFR phosphorylation”. For the same molecule, in the experiment on EGFR (3 μM YC-1, after 6 h treatment), the EGFR protein expression entry is on record as “significant decrease”. Also, the “complex formation of EZH2-c-Cbl-ERK” value in the experiment on EZH2-c-Cbl-ERK was “induced the complex formation”.
